Laboratory results from paper PMC6936879, “Inhibiting the copper efflux system in microbes as a novel approach for developing antibiotics” (PLoS ONE, 2019).

Key:
E. coli (BL21;DE3) = assay: E. coli growth rate experiment (O.D. 600 nm) under copper stress; type: cell-based; details: M9 medium, 37 °C, value after 14 h incubation, 5 μM Cu(II) chloride in assay (sentence does not say with or without Cu(II)), mean ± SE, n = 5
Experimental: E. coli (BL21;DE3) growth rates were evaluated in 96-well microplates: in 200 μl of a poor medium comprising M9 medium. Incubation was for 16 h at 37°C with Copper(II) chloride (Sigma-Aldrich, St. Louis, MO, USA) at a concentration of 5 μM. Absorbance at 600 nm was measured every 30 min after stirring for 5 s in a 96-well plate reader (SPL Life Sciences, Gyeonggi, Korea). The buffer background was auto-subtracted. Each experiment was repeated five times under identical conditions.
Next, E. coli were grown in M9 medium for 16 h, and their growth rate was evaluated in the absence and presence of Cu(II) in the medium. In each sample, a different peptide was introduced to the medium, with the kanamycin as a positive control. […] Growth rate values for all peptides at various concentrations after 14 h of incubation are presented in Fig 3 (the growth rate curves are presented in Figs E to F in S1 File).
Fig 3 Effect of test peptides on the E. coli growth rate. E. coli cultures were grown as described in Methods. The growth rate values after a 14 h incubation in the medium in the presence (gray lines) and absence (black lines) of Cu(II). Concentrations of the test peptides: A. 50 μM, B. 75 μM, C. 100 μM, and D. 125 μM. *p < 0.05, MEAN ± SE, n = 5, a comparison between the values in the presence and absence of Cu(II). #p < 0.05, MEAN ± SE, n = 5, in the presence of Cu(II) and comparing between values of a buffer and peptide. t-test was used for the statistic evaluation.

E. coli (BL21) = assay: Kirby-Bauer test (disc diffusion); type: cell-based; details: 2 mm radius discs, LB petri dishes, 37 °C overnight
CusB = target: T1, CusB (Escherichia coli, UniProt P77239, A236C/A248C); assay: DEER distance distribution measurements on spin-labeled CusB; set-up: species or system E. coli; details: CusB spin labeled (MTSSL) at A236C and A248C; Cu(I):CusB 3:1; Q-band DEER at 50 K; apo-CusB 2.5 ± 0.5 nm, holo-CusB 2.8 ± 0.3 nm
T1 construct: intein (cleaved yes); made in house; host or cells: E. coli BL21 (DE3)
Experimental: Before labeling, 10 mM DTT was added to the protein solution and mixed overnight at 4°C. DTT was dialyzed out using a Microsep Advanced Centrifugal Device (Pall, Port Washington, NY, USA) applied to samples of up to 5 mL in lysis buffer, with a 3-kDa molecular weight cutoff. Next, 0.25 mg of S-(2,2,5,5-tetramethyl-2,5-dihydro-1H-pyrrol-3-yl)methyl methanesulfonothioate (MTSSL, TRC) was dissolved in 15 μL Dimethyl sulfoxide (DMSO) and added to 0.75 ml of 0.01 mM protein solution (20-fold molar excess of MTSSL). The protein solution was then vortexed overnight at 4°C. The free spin label and Cu(I) ions were removed by several dialysis cycles over 4 days. […] The concentration was determined with a Lowry assay. […]
A constant-time four-pulse double electron-electron resonance (DEER) experiment with pulse sequence π/2(νobs)-τ1-π(νobs)-t′−π(νpump)-(τ1 + τ2 − t′)-π(νobs)-τ2(νobs)-τ2-echo was performed at (50 ± 0.5 K) on a Q-band Elexsys E580 equipped with a 2-mm probe head; bandwidth, 220 MHz. […] The echo was measured as a function of t′, and τ2 was kept constant to eliminate relaxation effects. […] The samples were measured in 1.6-mm quartz capillary tubes (Wilmad-Labglass, Vineland, NJ, USA). The data were analyzed with the DeerAnalysis 2016 program and with Tikhonov regularization. […]

Question: With AKIQG [pep8] as the substance, how does the “decrease in O.D. (600 nm)” value (E. coli (BL21;DE3); peptide 50 μM) read?
Answer: 45.5 ± 4.8%

Question: What about the “decrease in O.D. (600 nm)” value (E. coli (BL21;DE3); peptide 100 μM) of the same substance?
Answer: 63.6 ± 4.0%

Question: What about the “r, radius of bacteria killing formed over petri dishes by peptide-solution discs” value (E. coli (BL21); disc solution 50 µM in 0.85% NaCl) of the same substance?
Answer: 0 mm

Question: And the “r, radius of bacteria killing formed over petri dishes by peptide-solution discs” value (E. coli (BL21); disc solution 75 µM in 0.85% NaCl)?
Answer: 0.5 mm

Question: And the “r, radius of bacteria killing formed over petri dishes by peptide-solution discs” value (E. coli (BL21); disc solution 100 µM in 0.85% NaCl)?
Answer: 0.5 mm

Question: And the “r, radius of bacteria killing formed over petri dishes by peptide-solution discs” value (E. coli (BL21); disc solution 125 µM in 0.85% NaCl)?
Answer: 1 mm

Question: And the “DEER distance distribution of CusB bound to peptide and incubated with Cu(I)” value (CusB)?
Answer: around 3.2 nm
